Target: HDAC2 (Homo sapiens, UniProt Q92769)
Assay: HDAC2 fluorescence inhibition assay (tBoc-Lys(Ac)-AMC)

Chain of HDAC2 (Q92769 with tags, fused parts or gaps): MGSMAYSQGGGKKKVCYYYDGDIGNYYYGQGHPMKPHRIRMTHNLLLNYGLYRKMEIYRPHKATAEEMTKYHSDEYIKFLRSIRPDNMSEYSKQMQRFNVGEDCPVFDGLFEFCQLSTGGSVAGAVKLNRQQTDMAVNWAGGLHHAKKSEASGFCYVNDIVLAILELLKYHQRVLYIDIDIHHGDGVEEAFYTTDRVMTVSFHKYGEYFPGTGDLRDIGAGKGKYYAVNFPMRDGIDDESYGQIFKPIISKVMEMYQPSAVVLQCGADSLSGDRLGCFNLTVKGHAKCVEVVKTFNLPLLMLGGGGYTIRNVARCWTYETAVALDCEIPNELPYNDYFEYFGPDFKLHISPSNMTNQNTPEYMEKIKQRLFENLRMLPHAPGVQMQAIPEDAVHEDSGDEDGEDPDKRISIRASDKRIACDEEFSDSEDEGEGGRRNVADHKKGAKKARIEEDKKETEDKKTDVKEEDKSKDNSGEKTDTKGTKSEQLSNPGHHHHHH

Compound	IC50 [nM]
Cc1c2ccc(F)cc2nn1Cc1ccc(C(=O)Nc2ccccc2N)cc1 [Example 69, N-(2-aminophenyl)-4-((6-fluoro-3-methyl-2H-indazol-2-yl)methyl)benzamide]	50 to 100
Nc1ccccc1NC(=O)c1ccc(Cn2cc3c(Cl)cccc3n2)cc1 [Example 43, N-(2-aminophenyl)-4-((4-chloro-2H-indazol-2-yl)methyl)benzamide]	≤ 50
Nc1ccccc1NC(=O)c1ccc(Cn2cc(C(=O)NCCN3CCNCC3)cn2)cc1 [Example 103, 1-(4-(2-aminophenylcarbamoyl)benzyl)-N-(2-(piperazin-1-yl)ethyl)-1H-pyrazole-4-carboxamide]	≤ 50
Cc1cc(C)n(Cc2ccc(C(=O)Nc3ccccc3N)cc2)n1 [Example 124, N-(2-aminophenyl)-4-((3,5-dimethyl-1H-pyrazol-1-yl)methyl)benzamide]	100 to 500
COc1ccc2cn(Cc3ccc(C(=O)Nc4ccccc4N)cc3)nc2c1 [Example 59, N-(2-aminophenyl)-4-((6-methoxy-2H-indazol-2-yl)methyl)benzamide]	≤ 50
CC(=O)Nc1ccc2c(C)n(Cc3ccc(C(=O)Nc4ccccc4N)cc3)nc2c1 [Example 86, 4-((6-acetamido-3-methyl-2H-indazol-2-yl)methyl)-N-(2-aminophenyl)benzamide]	≤ 50
COCCOC(=O)Nc1ccc2nn(Cc3ccc(C(=O)Nc4ccccc4N)cc3)cc2c1 [Example 11, 2-Methoxyethyl 2-(4-((2-aminophenyl)carbamoyl)benzyl)-2H-indazol-5-ylcarbamate]	≤ 50
Cc1c2cccc(F)c2nn1Cc1ccc(C(=O)Nc2ccccc2N)cc1 [Example 53, N-(2-aminophenyl)-4-((7-fluoro-3-methyl-2H-indazol-2-yl)methyl)benzamide]	50 to 100
Nc1ccccc1NC(=O)c1ccc(Cn2ncc3cc(NC(=O)OCCN4CCOCC4)ccc32)cc1 [Example 22, 2-Morpholinoethyl 1-(4-((2-aminophenyl)carbamoyl)benzyl)-1H-indazol-5-ylcarbamate]	≤ 50
COc1ccc2c(C)n(Cc3ccc(C(=O)Nc4cc(-c5cccs5)ccc4N)cc3)nc2c1 [Example 116, N-(2-amino-5-(thiophen-2-yl)phenyl)-4-((6-methoxy-3-methyl-2H-indazol-2-yl)methyl)benzamide]	50 to 100
CC(C)NC(=O)c1cnn(Cc2ccc(C(=O)Nc3ccccc3N)cc2)c1 [Example 137, 1-(4-(2-aminophenylcarbamoyl)benzyl)-N-isopropyl-1H-pyrazole-4-carboxamide]	≤ 50
COc1ccc2cnn(Cc3ccc(C(=O)Nc4ccccc4N)cc3)c2c1 [Example 58, N-(2-aminophenyl)-4-((6-methoxy-1H-indazol-1-yl)methyl)benzamide]	50 to 100
CC(c1ccc(C(=O)Nc2ccccc2N)cc1)n1ncc2ccccc21 (stereo not drawn) [Example 108, 4-(1-(1H-indazol-1-yl)ethyl)-N-(2-aminophenyl)benzamide]	50 to 100
NC(=O)c1cnn(Cc2ccc(C(=O)Nc3ccccc3N)cc2)c1 [Example 142, 1-(4-(2-aminophenylcarbamoyl)benzyl)-1H-pyrazole-4-carboxamide]	50 to 100
CCCNC(=O)c1cnn(Cc2ccc(C(=O)Nc3ccccc3N)cc2)c1 [Example 149, 1-(4-(2-aminophenylcarbamoyl)benzyl)-N-propyl-1H-pyrazole-4-carboxamide]	≤ 50
CCNC(=O)c1cnn(Cc2ccc(C(=O)Nc3ccccc3N)cc2)c1 [Example 135, 1-(4-(2-aminophenylcarbamoyl)benzyl)-N-ethyl-1H-pyrazole-4-carboxamide]	50 to 100
Nc1ccccc1NC(=O)c1ccc(Cn2cc3ccccc3n2)s1 [Example 19, 5-((2H-Indazol-2-yl)methyl)-N-(2-aminophenyl)thiophene-2-carboxamide]	100 to 500

Compound	IC50 [nM]
COC(=O)Nc1ccc2nn(Cc3ccc(C(=O)Nc4ccccc4N)cc3)cc2c1 [Example 12, Methyl 2-(4-((2-aminophenyl)carbamoyl)benzyl)-2H-indazol-5-ylcarbamate]	≤ 50
Nc1ccccc1NC(=O)c1ccc(Cn2cc3c(n2)CCCC3)cc1 [Example 129, N-(2-aminophenyl)-4-((4,5,6,7-tetrahydro-2H-indazol-2-yl)methyl)benzamide]	50 to 100
Nc1ccccc1NC(=O)c1ccc(Cn2cc(C(=O)O)cn2)cc1 [Example 122, 1-(4-(2-aminophenylcarbamoyl)benzyl)-1H-pyrazole-4-carboxylic acid]	≥ 500
Nc1ccccc1NC(=O)c1ccc(Cn2nc3ccccc3n2)cc1 [Example 101, 4-((2H-benzo[d][1,2,3]triazol-2-yl)methyl)-N-(2-aminophenyl)benzamide]	50 to 100
Nc1ccccc1NC(=O)c1ccc(Cn2nc3ccccc3c2N)cc1 [Example 88, 4-((3-amino-2H-indazol-2-yl)methyl)-N-(2-aminophenyl)benzamide]	50 to 100
Nc1ccccc1NC(=O)c1ccc(Cn2cc(C(=O)NCc3ccccn3)cn2)cc1 [Example 126, 1-(4-(2-aminophenylcarbamoyl)benzyl)-N-(pyridin-2-ylmethyl)-1H-pyrazole-4-carboxamide]	≤ 50
Cc1c2cc(F)ccc2nn1Cc1ccc(C(=O)Nc2ccccc2N)cc1 [Example 71, N-(2-aminophenyl)-4-((5-fluoro-3-methyl-2H-indazol-2-yl)methyl)benzamide]	50 to 100
Cc1c2c(F)cccc2nn1Cc1ccc(C(=O)Nc2ccccc2N)cc1 [Example 55, N-(2-aminophenyl)-4-((4-fluoro-3-methyl-2H-indazol-2-yl)methyl)benzamide]	50 to 100
Nc1ccccc1NC(=O)c1ccc(Cn2cc3c(F)cccc3n2)cc1 [Example 49, N-(2-aminophenyl)-4-((4-fluoro-2H-indazol-2-yl)methyl)benzamide]	≤ 50
CC(=O)Nc1ccc2cn(Cc3ccc(C(=O)Nc4ccccc4N)cc3)nc2c1 [Example 90, 4-((6-acetamido-2H-indazol-2-yl)methyl)-N-(2-aminophenyl)benzamide]	≤ 50
Nc1ccccc1NC(=O)c1ccc(Cn2cc(C(=O)Nc3ccccc3)cn2)cc1 [Example 127, 1-(4-(2-aminophenylcarbamoyl)benzyl)-N-phenyl-1H-pyrazole-4-carboxamide]	≤ 50
COc1ccc2c(C)nn(Cc3ccc(C(=O)Nc4cc(-c5cccs5)ccc4N)cc3)c2c1 [Example 114, N-(2-amino-5-(thiophen-2-yl)phenyl)-4-((6-methoxy-3-methyl-1H-indazol-1-yl)methyl)benzamide]	50 to 100
Nc1ccccc1NC(=O)c1ccc(Cn2cc3ccccc3n2)cc1 [Example 2, 4-((2H-indazol-2-yl)methyl)-N-(2-aminophenyl)benzamide]	50 to 100
CC(=O)Nc1ccc2c(c1)c(C)nn2Cc1ccc(C(=O)Nc2ccccc2N)cc1 [Example 107, 4-((5-acetamido-3-methyl-1H-indazol-1-yl)methyl)-N-(2-aminophenyl)benzamide]	50 to 100
Nc1ccc(-c2cccs2)cc1NC(=O)c1ccc(Cn2ncc3c(F)cc(F)cc32)cc1 [Example 113, N-(2-amino-5-(thiophen-2-yl)phenyl)-4-((4,6-difluoro-1H-indazol-1-yl)methyl)benzamide]	100 to 500
Nc1ccccc1NC(=O)c1ccc(Cn2ncc3c(F)cc(F)cc32)cc1 [Example 44, N-(2-aminophenyl)-4-((4,6-difluoro-1H-indazol-1-yl)methyl)benzamide]	50 to 100
